For 73 compounds, EC50 results are on record in patent US10233195B2, “Anti-fibrotic pyridinones” (InterMune, Inc., priority 2014, dated 2019).

A word on the EC50: it is the midpoint of the concentration-response curve. A higher EC50 goes with a less potent agent.

This assay relates to TGF-b induced Endothelin-1 production. Put plainly: ET-1 assay: inhibitory effect on TGF-b induced endothelin-1 production. Format: cell-based. The settings on record: Homo sapiens, Fibroblast; fibroblasts, stimulant (TGFb, serum, LPA etc), ET-1 in media by ELISA, 4-parameter fit. As for the experimental part: Assay of Inhibitory Effect on TGF-b Induced Endothelin-1 Production
Fibroblasts (primary human lung and dermal, HFL-1, 3T3 etc) are seeded in 96-well plates at ˜15000 cells/well and serum starved for 0-48 hours. After media exchange, compounds serially diluted in DMSO are added to the cells. After a brief incubation of ˜30 min, stimulants (TGFb, serum, LPA etc) are added followed by further incubation for 16-48 hours. Media is then harvested and stored frozen in plate format for later endothelin-1 (ET-1) determination by ELISA. Toxicity measurements are made using the ATPlite kit (Perkin-Elmer). ET-1 is quantified using an ELISA kit (R&D Systems). The amount of ET-1 produced in the assay wells are back-calculated using the ELISA standard. The ability of a compound to inhibit ET-1 production is typically analyzed by fitting dose-response curves to a 4-parameter logistic function to obtain an EC50 value. A measure of cytotoxicity (CC50) is likewise reported from the same experiment using the ATPlite data.
Compounds of some embodiments were prepared according to synthetic methods described herein and assay data obtained for EC50 against ET-1. The assay data obtained is presented in Table 2, in which A=less than 50 μM, B=greater than or equal to 50 μM and less than or equal to 200 μM; and C=greater than 200 μM.
On the technique in general: ELISA stands for enzyme-linked immunosorbent assay.

On to `O=c1ccc(-c2cn[nH]c2)cn1-c1cccc(C(F)(F)F)c1` [Compound 373], for which the EC50 is greater than 200 µM.
The same measure for `Cc1cc(=O)n(-c2ccccc2)cc1-c1ccccc1` [Compound 165]: 50 to 200 µM; for `O=c1ccc(-c2ccc(F)cc2)cn1Cc1ccccc1` [Compound 79]: less than 50 µM.
Under `CC(C)C(=O)Nc1cc(=O)n(-c2ccc(OC(F)(F)F)cc2)cc1-c1ccc(F)cc1` [Compound 108] stands greater than 200 µM.
Under `O=c1c2ncn(Cc3ccccc3)c2c(-c2ccc(F)cc2)cn1-c1ccc(OC(F)(F)F)cc1` [Compound 54] stands greater than 200 µM; under `COc1ccc(-c2ccc(=O)n(-c3ccc(Cl)cc3)c2)cc1` [Compound 303], 50 to 200 µM.
Turning to `C[C@H]1CCC(=O)N(c2ccccc2)C1` [Compound 83], the EC50 is greater than 200 µM.
Under `Cc1ccc(=S)n(-c2ccc(F)cc2)c1` [Compound 336] stands greater than 200 µM.
The compound `Cn1cc(-c2cn(-c3ccc(OC(F)(F)F)cc3)c(=O)c3ccc(C(F)(F)F)nc23)cn1` [Compound 39] returned an EC50 of less than 50 µM.
Under `CC(=O)Nc1cc(=O)n(-c2ccc(OC(F)(F)F)cc2)cc1-c1cnn(C)c1` [Compound 141] stands greater than 200 µM; under `Cn1cc(-c2cn(-c3ccc(OC(F)(F)F)cc3)c(=O)c3c2NCCC3)cn1` [Compound 44], greater than 200 µM; under `Cn1cc(-c2cn(-c3ccc(OC(F)(F)F)cc3)c(=O)cc2Cl)cn1` [Compound 122], greater than 200 µM.
The same measure for `O=c1ccc(Br)cn1-c1cccc(F)c1` [Compound 272]: greater than 200 µM.
The same measure for `CC(=O)c1ccc(=O)n(-c2cccc(F)c2)c1` [Compound 15]: greater than 200 µM.
With `Cc1cc(=O)n(-c2ccc(C(F)(F)F)cc2)cc1-c1cnn(C)c1` [Compound 228], the EC50 fell in the range of 50 to 200 µM.
Under `O=C1COCCN1CCOc1cc(=O)n(-c2ccc(OC(F)(F)F)cc2)cc1-c1ccc(F)cc1` [Compound 98] stands 50 to 200 µM; under `CC(C)Oc1ccc(-n2cc(-c3cn[nH]c3)ccc2=O)cc1` [Compound 369], 50 to 200 µM.
The same measure for `CCOc1ccc(-n2cc(-c3cnn(C)c3)c(OCCOC(C)C)cc2=O)c(C)c1` [Compound 696]: 50 to 200 µM; for `Cc1cc(=O)n(-c2ccc(OC(F)(F)F)cc2)cc1-c1cccc2c1NC(=O)CO2` [Compound 426]: greater than 200 µM.
Compound `COc1ccc(-c2ccc(=O)n(-c3ccccc3F)c2)cc1` [Compound 312] returned a concentration for a half-maximal effect (EC50) greater than 200 µM.
As for `Cc1cc(=O)n(-c2ccccc2)cc1C` [Compound 366], the EC50 was greater than 200 µM.
Under `N#Cc1ccc(-n2cc(-c3cn[nH]c3)c3nccnc3c2=O)cc1` [Compound 573] stands greater than 200 µM; under `Cc1cc(=O)n(-c2ccc(OC(F)(F)F)cc2C)cc1-c1ccc(F)cc1` [Compound 186], less than 50 µM; under `Cc1cc(=O)n(-c2ccc(OC(F)(F)F)cc2)cc1-c1cccc(Cl)c1` [Compound 191], 50 to 200 µM.
Under `CC(C)Oc1ccc(-n2cc(-c3ccc(S(N)(=O)=O)cc3)ccc2=O)cc1` [Compound 330] stands greater than 200 µM.
The same measure for `Cn1cc(-c2cn(-c3ccc(OC(F)(F)F)cc3)c(=O)cc2OCCN2CCOCC2)cn1` [Compound 147]: greater than 200 µM; for `COc1ccc(-c2ccc(=O)n(-c3cccc(OC)c3)c2)cc1` [Compound 309]: 50 to 200 µM; for `O=c1cc(NCc2ccccc2)c(-c2ccc(F)cc2)cn1-c1ccc(OC(F)(F)F)cc1` [Compound 89]: greater than 200 µM.
As to `O=c1ncc(-c2ccc(F)cc2)cn1-c1ccc(OC(F)(F)F)cc1` [Compound 357], the EC50 was greater than 200 µM.
The same measure for `Cc1cc(=O)n(-c2ccc(OC(F)(F)F)cc2)cc1-c1ccc2c(ccn2C)c1` [Compound 255]: greater than 200 µM; for `CC(=O)Nc1cccc(-n2cc(-c3ccc(F)cc3)c(C)cc2=O)c1` [Compound 172]: greater than 200 µM.
The same measure for `O=c1c2cccnc2c(-c2cn[nH]c2)cn1-c1ccc(OC(F)(F)F)cc1` [Compound 579]: greater than 200 µM; for `CCn1nnc2c(-c3cn[nH]c3)cn(-c3ccc(OC(F)(F)F)cc3)c(=O)c21` [Compound 634]: less than 50 µM.
Under `CCCNC(=O)c1cc(=O)n(-c2ccc(OC(F)(F)F)cc2)cc1-c1cnn(C)c1` [Compound 159] stands greater than 200 µM; under `N#Cc1cc(=O)n(-c2ccc(OC(F)(F)F)cc2)cc1-c1ccc(F)cc1` [Compound 401], greater than 200 µM; under `O=C(Nc1cc(=O)n(-c2ccc(OC(F)(F)F)cc2)cc1-c1ccc(F)cc1)OCc1ccccc1` [Compound 103], greater than 200 µM.
`CCOc1ccc(-n2cc(-c3cnn(C)c3)c(NCc3ccccn3)cc2=O)c(C)c1` [Compound 699] registered an EC50 of 50 to 200 µM.
The same measure for `COCCOc1cc(=O)n(-c2ccc(OC(F)(F)F)cc2)cc1-c1cnn(C)c1` [Compound 144]: greater than 200 µM.
The same measure for `Cc1cc(=O)n(-c2ccc(OC(F)(F)F)cc2)cc1C` [Compound 367]: greater than 200 µM; for `O=c1c2scnc2c(-c2cn[nH]c2)cn1-c1ccc(OC(F)(F)F)cc1` [Compound 582]: less than 50 µM.
Compound `Cn1cc(-c2cn(-c3ccc(OC(F)(F)F)cc3)c(=O)c3c2ccn3CCO)cn1` [Compound 614] came in with an EC50 of less than 50 µM.
With `Cc1cc(=O)n(-c2ccc(OC(F)(F)F)cc2)cc1-c1ccnn1C` [Compound 247], the EC50 is greater than 200 µM.
Under `Cn1cc(-c2cnc(=O)n(-c3ccccc3)c2)cn1` [Compound 355] stands greater than 200 µM; under `CCn1ccc2c(=O)n(-c3ccc(OC(F)(F)F)cc3)cc(-c3cnn(C)c3)c21` [Compound 694], less than 50 µM; under `Cn1cc(-c2cn(-c3ccc(OC(F)(F)F)cc3)c(=O)cc2N)cn1` [Compound 124], greater than 200 µM.
The same measure for `CC(=O)c1ccc(=O)n(-c2ccc(Cl)cc2)c1` [Compound 12]: greater than 200 µM; for `CCn1cnc2c(-c3cnn(C(C)C)c3)cn(-c3ccc(OC(F)(F)F)cc3)c(=O)c21` [Compound 671]: less than 50 µM.
The same measure for `CCn1nc2c(-c3ccc(F)cc3)cn(-c3ccc(OC(F)(F)F)cc3)c(=O)c2n1` [Compound 680]: greater than 200 µM.
Compound `CC(C)OCCn1ccc2c(-c3cn[nH]c3)cn(-c3ccc(OC(F)(F)F)cc3)c(=O)c21` [Compound 692] yielded an EC50 of less than 50 µM.
Under `Cn1cc(-c2cn(-c3ccc(Cl)cc3)c(=O)c3c2ccn3C)cn1` [Compound 599] stands less than 50 µM.
The same measure for `CNC(=O)c1cccc(-n2cc(-c3ccc(F)cc3)c(C)cc2=O)c1` [Compound 190]: 50 to 200 µM; for `Cc1n[nH]c(C)c1-c1ccc(=O)n(-c2ccncc2)c1` [Compound 390]: greater than 200 µM.
The same measure for `CC(=O)Nc1cccc(-n2cc(C(F)(F)F)ccc2=O)c1` [Compound 277]: greater than 200 µM; for `CCOC(=O)Nc1cc(=O)n(-c2ccc(OC(F)(F)F)cc2)cc1-c1cnn(C)c1` [Compound 137]: greater than 200 µM; for `O=c1cc2ccccc2cn1-c1ccccc1` [Compound 354]: 50 to 200 µM.
Consider `O=c1ccc(C2CCC2)cn1-c1ccccc1` [Compound 65], for which the EC50 is greater than 200 µM.
As to `CCn1c(=O)oc2ccc(-c3cn(-c4ccc(OC(F)(F)F)cc4)c(=O)cc3C)cc21` [Compound 554], the half-maximal effective concentration (EC50) is greater than 200 µM.
Under `Cn1cc(-c2cnc(=O)n(-c3ccc(OC(F)(F)F)cc3)c2)cn1` [Compound 364] stands greater than 200 µM.
The same measure for `O=c1ccc(-c2cncnc2)cn1-c1ccccc1F` [Compound 346]: greater than 200 µM; for `Cc1ccc(=O)n(Cc2ccccc2)c1` [Compound 78]: greater than 200 µM; for `O=c1ccc(-c2cncnc2)cn1-c1cccc(F)c1` [Compound 345]: greater than 200 µM.
The same measure for `COc1ccc(CN(C)c2cc(=O)n(-c3ccc(OC(F)(F)F)cc3)cc2-c2cnn(C)c2)cc1` [Compound 135]: 50 to 200 µM; for `O=c1ccc(-c2ccccc2)cn1-c1ccncc1` [Compound 299]: greater than 200 µM.
`Cc1n[nH]c(C)c1-c1ccc(=O)n(-c2ccc(F)cc2)c1` [Compound 379] registered a concentration giving a half-maximal response (EC50) greater than 200 µM.
Under `Nc1cc(=O)n(-c2ccc(OC(F)(F)F)cc2)cc1-c1ccc(F)cc1` [Compound 88] stands 50 to 200 µM; under `O=c1ccc(-c2cccc(Cl)c2)cn1-c1ccccc1Cl` [Compound 322], less than 50 µM.
Under `CC(C)c1cc(=O)n(-c2ccc(OC(F)(F)F)cc2)cc1-c1cnn(C)c1` [Compound 236] stands 50 to 200 µM; under `O=c1ccc(-c2cccc(Cl)c2)cn1-c1ccc(Cl)cc1` [Compound 314], less than 50 µM.
Under `CCOc1ccc(-n2cc(-c3cnn(C)c3)c(NCc3ccc(OCCOC)cc3)cc2=O)c(C)c1` [Compound 707] stands less than 50 µM.
Compound `CCOc1ccc(Oc2cc(=O)n(-c3ccc(OC(F)(F)F)cc3)cc2-c2cnn(C)c2)cc1C` [Compound 154] registered an EC50 greater than 200 µM.
Under `Cc1cc(=O)n(-c2ccc(OC(F)(F)F)cc2)cc1-c1cnc2nccn2c1` [Compound 248] stands greater than 200 µM.
Under `Cc1ccc(=O)n(-c2ccccc2F)c1` [Compound 283] stands greater than 200 µM; under `Cc1cc(=O)n(-c2ccccc2F)cc1-c1ccccc1` [Compound 171], 50 to 200 µM.
